Reference: patent US6239171A, “Tocotrienols and tocotrienol-like compounds and methods for their use” (Lipogenics, Inc., priority 1998, dated 2001)

Legend:
HMG-CoA reductase = biological target: T1, HMG-CoA reductase (Sus scrofa, UniProt Q1W675); assay: Hepatic HMG-CoA reductase activity in hypercholesterolemic swine; format: in vivo; conditions: control diet + 50 ppm
T1 construct: The hepatic enzymatic activity of the HMG-CoA reductase decreased approximately 30%; from tissue; host or cells: pig liver, microsomes
T1 sequence (Q1W675 1-885): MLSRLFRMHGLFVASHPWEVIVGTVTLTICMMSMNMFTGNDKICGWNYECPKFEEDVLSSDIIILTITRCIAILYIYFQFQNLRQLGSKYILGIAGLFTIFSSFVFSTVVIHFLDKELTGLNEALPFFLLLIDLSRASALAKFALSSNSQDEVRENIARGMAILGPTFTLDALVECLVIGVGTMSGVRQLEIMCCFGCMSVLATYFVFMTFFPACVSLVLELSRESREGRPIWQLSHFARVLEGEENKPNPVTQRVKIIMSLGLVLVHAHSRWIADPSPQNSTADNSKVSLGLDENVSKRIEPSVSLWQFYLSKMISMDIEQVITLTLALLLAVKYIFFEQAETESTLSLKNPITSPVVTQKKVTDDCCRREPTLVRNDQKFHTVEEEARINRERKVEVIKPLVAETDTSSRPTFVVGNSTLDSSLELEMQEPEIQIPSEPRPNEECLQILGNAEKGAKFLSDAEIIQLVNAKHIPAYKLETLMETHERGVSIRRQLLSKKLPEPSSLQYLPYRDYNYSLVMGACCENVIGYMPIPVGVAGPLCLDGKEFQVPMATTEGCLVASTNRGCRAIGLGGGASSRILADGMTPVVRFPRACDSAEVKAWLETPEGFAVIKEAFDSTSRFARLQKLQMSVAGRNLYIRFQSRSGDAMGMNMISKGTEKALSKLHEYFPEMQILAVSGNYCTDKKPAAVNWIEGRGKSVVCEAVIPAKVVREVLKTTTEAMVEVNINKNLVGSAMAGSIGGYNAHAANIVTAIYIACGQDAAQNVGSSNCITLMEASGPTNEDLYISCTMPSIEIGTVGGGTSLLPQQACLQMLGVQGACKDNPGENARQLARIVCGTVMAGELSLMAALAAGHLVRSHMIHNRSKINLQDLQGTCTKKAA
Description: (§1) All assays conducted on chicken or swine serum were done following the protocols described in A. A. Qureshi et al., "Lowering Of Serum Cholesterol In Hypercholesterolemic Humans By Tocotrienols" (Palmvitee), Am. J. Clin. Nutr., 53, pp. 1021S-26S (1991). All enzymatic assays were done following the protocols described in A. A. Qureshi et al., "Effects of Cereals and Culture Filtrate of Trichoderma viride on Lipid Metabolism of Swine", Lipids, 17, pp. 924 (1982). Plasma insulin, glucagon and TNF levels were measured using radioinnumoassay kits from Ventrex Laboratories, Inc. (Portland, Me.), ICN Biomedicals, Inc. (Costa Mesa, Calif.) and Genzyme Corp. (Cambridge, Mass.), respectively.
We next measured the effects of various tocotrienols from rice bran on HMG-CoA reductase and cholesterol 7α-hydroxylase in hypercholesterolemic swine. Since pigs are very similar to humans in their cholesterol metabolism, they provide a useful model from which to study hypercholesterolemia and related diseases. […] The serum cholesterol concentration in these swine is typically above 300-500 mg/dl, as compared to 120-160 mg/dl in normal adult swine. As a result, the pigs develop complicated atherosclerotic plaques that closely resemble advanced atherosclerotic lesions found in humans.
(§2) Each group of three 5-month old swine was administered either a control diet or a control diet supplemented with 50 ppm of TRF or 50 ppm of an individual tocotrienol. The samples were prepared as described in Example 11. After a 12 hour fast, serum and plasma samples were taken a 0 hrs, 21 days and 42 days from the start of the feeding period. After taking serum and plasma samples from the pigs at the end of the 42 day period, all of the swine were fasted for a total of 40 hours, followed by a 48 hour refeeding period. One swine from each group was sacrificed at that time and the liver, intestine, lung, heart, loin muscle, adipose tissue and ham muscle were removed.

[1] = test system: hypercholesterolemic swine; assay: Plasma thromboxane B2 and platelet factor 4 in hypercholesterolemic swine; format: in vivo; design: Platelet Factor 4: unit not given here; conditions: control diet + 50 ppm, 42 days
Description: as §1, §2
This example was conducted to measure the serum levels of apolipoprotein (a)1, apolipoprotein B, triglycerides, glucose, insulin and glucagon and the plasma levels of thromboxane B2 and platelet factor 4 in the swine described in Example 15.

[2] = test system: hypercholesterolemic swine; assay: Total cholesterol, triglyceride and glucose concentrations in tissues of hypercholesterolemic swine; format: in vivo
Method: as §2, with “The samples were prepared as described in Example 11.” left out
We next determined the effect of tocotrienols on the total cholesterol, triglyceride and glucose concentrations in various tissues of hypercholesterolemic swine.

chickens = assay: Antibody titers to sheep red blood cells in chickens; format: in vivo, chicken; conditions: 4 weeks
Method: The model for this study was 6-week old female white leghorn chickens. Each group of 12 chickens was fed an unsupplemented chicken diet or a control diet supplemented with 50 ppm of a tocotrienol or 100 ppm of a commercially available hypercholesterolemic agent (Geraniol or Lovastatin). […] The chickens were fed over a period of 4 weeks, then the blood was drawn. The antibody response was determined by injecting the chickens i.p. with 0.5 ml of a 5% suspension of sheep red blood cells (RBCs) in PBS (v/v) which were previously washed three times. […] Relative IgG levels were determined by using 2-mercaptoethanol preincubation for 30 min. The relative IgM levels were calculated by subtracting the IgG antibody levels from total antibody levels. All antibody levels are expressed as the log base 2 of the highest titer that was needed to hemagglutinate an equal volume of 0.5% RBC suspension.

[3] = control diet + 50 ppm, sheep red blood cells i.p.

CC(C)=CCC/C(C)=C/CC/C(C)=C/CCC1CCc2cc(O)ccc2O1 (stereo not drawn) [P25, 3,4-dihydro-2-(4,8,12-trimethyltrideca-3'(E),7'(E),11'-trienyl)-2H-1-benzopyran-6-ol]
HMG-CoA REDUCTASE (HMG-CoA reductase; 21 days): 307.27 pg/min/mg of microsomes
HMG-CoA REDUCTASE, percentage of 0-time value (HMG-CoA reductase; 21 days): 87.58%
HMG-CoA REDUCTASE (HMG-CoA reductase; 42 days): 269.43 pg/min/mg of microsomes
HMG-CoA REDUCTASE, Percentage of Control Activity (HMG-CoA reductase; 42 days): 69.75%
HMG-CoA REDUCTASE, percentage of 0-time value (HMG-CoA reductase; 42 days): 76.79%
Platelet Factor 4 [1]: 19.15
Platelet Factor 4, percentage of control [1]: 79.36%
Thromboxane B2 [1]: 57.03 pg/100 ml
Thromboxane B2, percentage of control [1]: 83.02%
reduction of total cholesterol concentration in the ham muscle ([2]; 50 ppm in diet): 30%
reduction of total cholesterol concentration in the liver ([2]; 50 ppm in diet): 37%
TOTAL CHOLESTEROL CONCENTRATION, Adipose Tissue ([2]; control diet + 50 ppm, 42 days): 89.54 mg/100 gm
TOTAL CHOLESTEROL CONCENTRATION, Ham Muscle ([2]; control diet + 50 ppm, 42 days): 69.17 mg/100 gm
TOTAL CHOLESTEROL CONCENTRATION, Heart ([2]; control diet + 50 ppm, 42 days): 51.53 mg/100 gm
TOTAL CHOLESTEROL CONCENTRATION, Intestine ([2]; control diet + 50 ppm, 42 days): 176.67 mg/100 gm
TOTAL CHOLESTEROL CONCENTRATION, Liver ([2]; control diet + 50 ppm, 42 days): 125.21 mg/100 gm
TOTAL CHOLESTEROL CONCENTRATION, Loin Muscle ([2]; control diet + 50 ppm, 42 days): 99.04 mg/100 gm
TOTAL CHOLESTEROL CONCENTRATION, Lung ([2]; control diet + 50 ppm, 42 days): 68.5 mg/100 gm
TOTAL CHOLESTEROL, Adipose Tissue, percentage of control ([2]; control diet + 50 ppm, 42 days): 81.85%
TOTAL CHOLESTEROL, Ham Muscle, percentage of control ([2]; control diet + 50 ppm, 42 days): 69.17%
TOTAL CHOLESTEROL, Heart, percentage of control ([2]; control diet + 50 ppm, 42 days): 82.79%
TOTAL CHOLESTEROL, Intestine, percentage of control ([2]; control diet + 50 ppm, 42 days): 81.98%
TOTAL CHOLESTEROL, Liver, percentage of control ([2]; control diet + 50 ppm, 42 days): 62.11%
TOTAL CHOLESTEROL, Loin Muscle, percentage of control ([2]; control diet + 50 ppm, 42 days): 81.85%
TOTAL CHOLESTEROL, Lung, percentage of control ([2]; control diet + 50 ppm, 42 days): 66.98%
TOTAL GLUCOSE CONCENTRATION, Adipose Tissue ([2]; control diet + 50 ppm, 42 days): 14.96 mg/100 gm
TOTAL GLUCOSE CONCENTRATION, Ham Muscle ([2]; control diet + 50 ppm, 42 days): 53.05 mg/100 gm
TOTAL GLUCOSE CONCENTRATION, Heart ([2]; control diet + 50 ppm, 42 days): 45.49 mg/100 gm
TOTAL GLUCOSE CONCENTRATION, Intestine ([2]; control diet + 50 ppm, 42 days): 56.06 mg/100 gm
TOTAL GLUCOSE CONCENTRATION, Liver ([2]; control diet + 50 ppm, 42 days): 362.99 mg/100 gm
TOTAL GLUCOSE CONCENTRATION, Loin Muscle ([2]; control diet + 50 ppm, 42 days): 53.01 mg/100 gm
TOTAL GLUCOSE CONCENTRATION, Lung ([2]; control diet + 50 ppm, 42 days): 60.96 mg/100 gm
TOTAL GLUCOSE, Adipose Tissue, percentage of control ([2]; control diet + 50 ppm, 42 days): 81.57%
TOTAL GLUCOSE, Ham Muscle, percentage of control ([2]; control diet + 50 ppm, 42 days): 98.57%
TOTAL GLUCOSE, Heart, percentage of control ([2]; control diet + 50 ppm, 42 days): 92.37%
TOTAL GLUCOSE, Intestine, percentage of control ([2]; control diet + 50 ppm, 42 days): 77.89%
TOTAL GLUCOSE, Liver, percentage of control ([2]; control diet + 50 ppm, 42 days): 89.58%
TOTAL GLUCOSE, Loin Muscle, percentage of control ([2]; control diet + 50 ppm, 42 days): 74.41%
TOTAL GLUCOSE, Lung, percentage of control ([2]; control diet + 50 ppm, 42 days): 91.08%
TOTAL TRIGLYCERIDES CONCENTRATION, Adipose Tissue ([2]; control diet + 50 ppm, 42 days): 259.62 mg/100 gm
TOTAL TRIGLYCERIDES CONCENTRATION, Ham Muscle ([2]; control diet + 50 ppm, 42 days): 182.98 mg/100 gm
TOTAL TRIGLYCERIDES CONCENTRATION, Heart ([2]; control diet + 50 ppm, 42 days): 140.51 mg/100 gm
TOTAL TRIGLYCERIDES CONCENTRATION, Intestine ([2]; control diet + 50 ppm, 42 days): 345.37 mg/100 gm
TOTAL TRIGLYCERIDES CONCENTRATION, Liver ([2]; control diet + 50 ppm, 42 days): 384.00 mg/100 gm
TOTAL TRIGLYCERIDES CONCENTRATION, Loin Muscle ([2]; control diet + 50 ppm, 42 days): 189.18 mg/100 gm
TOTAL TRIGLYCERIDES CONCENTRATION, Lung ([2]; control diet + 50 ppm, 42 days): 163.42 mg/100 gm
TOTAL TRIGLYCERIDES, Adipose Tissue, percentage of control activity ([2]; control diet + 50 ppm, 42 days): 59.59%
TOTAL TRIGLYCERIDES, Ham Muscle, percentage of control activity ([2]; control diet + 50 ppm, 42 days): 98.44%
TOTAL TRIGLYCERIDES, Heart, percentage of control activity ([2]; control diet + 50 ppm, 42 days): 97.43%
TOTAL TRIGLYCERIDES, Intestine, percentage of control activity ([2]; control diet + 50 ppm, 42 days): 96.57%
TOTAL TRIGLYCERIDES, Liver, percentage of control activity ([2]; control diet + 50 ppm, 42 days): 89.44%
TOTAL TRIGLYCERIDES, Loin Muscle, percentage of control activity ([2]; control diet + 50 ppm, 42 days): 86.12%
TOTAL TRIGLYCERIDES, Lung, percentage of control activity ([2]; control diet + 50 ppm, 42 days): 95.03%
total antibody titer and IgM titer compared to the control (in words) (chickens; 50 ppm in diet): increased
IgG antibody titers in serum (chickens; [3]): 2.43 ± 1.40 Log 2
IgM antibody titers in serum (chickens; [3]): 8.92 Log 2
Total Ab titers in serum (chickens; [3]): 10.30 ± 1.16 Log 2
